Results as given in PubChem BioAssay AID1963873 (Molecular Pharmacology Branch, DTP, NCI, 2024).

Tested on: 276233-004-R-J1-PDC KRAS spheroids with HUVEC/MSC, viability
Test: Anticancer human tumor 276233-004-R-J1-PDC patient-derived colon adenocarcinoma cell line growth inhibition [KRAS2]
Settings: for IC50: curve of first compound; for viability, T/C: stronger effect = lower value
Outline: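 KRAS-mutant tumor cells were grown as spheroids with HUVEC endothelial cells and human MSCs as stroma. Targeted agents were tested alone and with KRAS pathway inhibitors. Doses started at or near clinical Cmax, or 10 microM, descending half-log.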

[1] = second compound 0.1 µM, first compound 0.000316 µM
[2] = second compound 0.1 µM, first compound 0.001 µM
[3] = second compound 0.1 µM, first compound 0.00316 µM
[4] = second compound 0.1 µM, first compound 0.01 µM
[5] = second compound 0.1 µM, first compound 0.0316 µM
[6] = second compound 0.316 µM, first compound 0.000316 µM
[7] = second compound 0.316 µM, first compound 0.001 µM
[8] = second compound 0.316 µM, first compound 0.00316 µM
[9] = second compound 0.316 µM, first compound 0.01 µM
[10] = second compound 0.316 µM, first compound 0.0316 µM
[11] = second compound 1 µM, first compound 0.000316 µM
[12] = second compound 1 µM, first compound 0.001 µM
[13] = second compound 1 µM, first compound 0.00316 µM
[14] = second compound 1 µM, first compound 0.01 µM
[15] = second compound 1 µM, first compound 0.0316 µM
[16] = second compound 3.16 µM, first compound 0.000316 µM
[17] = second compound 3.16 µM, first compound 0.001 µM
[18] = second compound 3.16 µM, first compound 0.00316 µM
[19] = second compound 3.16 µM, first compound 0.01 µM
[20] = second compound 3.16 µM, first compound 0.0316 µM
[21] = second compound 10 µM, first compound 0.000316 µM
[22] = second compound 10 µM, first compound 0.001 µM
[23] = second compound 10 µM, first compound 0.00316 µM
[24] = second compound 10 µM, first compound 0.01 µM
[25] = second compound 10 µM, first compound 0.0316 µM
[26] = second compound 0.1 µM, first compound 0.1 µM
[27] = second compound 0.316 µM, first compound 0.1 µM
[28] = second compound 1 µM, first compound 0.1 µM
[29] = second compound 3.16 µM, first compound 0.1 µM
[30] = second compound 10 µM, first compound 0.1 µM
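Also: cells exposed to agents for seven days before viability read.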
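For viability, T/C in this document: 100% = DMSO vehicle control wells and lower values mean fewer viable cells.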

CC(=O)Nc1cccc(-n2c(=O)n(C3CC3)c(=O)c3c(Nc4ccc(I)cc4F)n(C)c(=O)c(C)c32)c1 + COc1cc2nc(C)nc(NC(C)c3cc(N)cc(C(F)(F)F)c3)c2cc1OC1CCOC1
IC50 (second compound 0.1 µM): 5.58 nM
IC50 (second compound 0.316 µM): 4.05 nM
IC50 (second compound 1 µM): 2.77 nM
IC50 (second compound 3.16 µM): 1.8 nM
IC50 (second compound 10 µM): < 0.1 nM
viability, T/C (second compound 0.1 µM, first compound 0.0001 µM): 86%
viability, T/C [1]: 88.2%
viability, T/C [2]: 75.2%
viability, T/C [3]: 63%
viability, T/C [4]: 37.4%
viability, T/C [5]: 17%
viability, T/C (second compound 0.316 µM, first compound 0.0001 µM): 88.8%
viability, T/C [6]: 79.2%
viability, T/C [7]: 65.1%
viability, T/C [8]: 54.3%
viability, T/C [9]: 38.4%
viability, T/C [10]: 23%
viability, T/C (second compound 1 µM, first compound 0.0001 µM): 95.2%
viability, T/C [11]: 72.6%
viability, T/C [12]: 69.7%
viability, T/C [13]: 44.7%
viability, T/C [14]: 34.3%
viability, T/C [15]: 12.3%
viability, T/C (second compound 3.16 µM, first compound 0.0001 µM): 80.2%
viability, T/C [16]: 76.4%
viability, T/C [17]: 59.4%
viability, T/C [18]: 39.7%
viability, T/C [19]: 21.6%
viability, T/C [20]: 8.22%
viability, T/C (second compound 10 µM, first compound 0.0001 µM): 26.6%
viability, T/C [21]: 21.4%
viability, T/C [22]: 21.7%
viability, T/C [23]: 14%
viability, T/C [24]: 15.2%
viability, T/C [25]: 6.73%

CC(C)n1nc(-c2ccc3oc(N)nc3c2)c2c(N)ncnc21 + COc1cc2nc(C)nc(NC(C)c3cc(N)cc(C(F)(F)F)c3)c2cc1OC1CCOC1
IC50 (second compound 0.1 µM): > 100 nM
IC50 (second compound 0.316 µM): > 100 nM
IC50 (second compound 1 µM): 42.6 nM
IC50 (second compound 3.16 µM): > 100 nM
IC50 (second compound 10 µM): < 0.316 nM
viability, T/C [1]: 90.1%
viability, T/C [2]: 120%
viability, T/C [3]: 76.7%
viability, T/C [4]: 68%
viability, T/C [5]: 64.7%
viability, T/C [26]: 50.8%
viability, T/C [6]: 109%
viability, T/C [7]: 86.3%
viability, T/C [8]: 71.6%
viability, T/C [9]: 70.9%
viability, T/C [10]: 68%
viability, T/C [27]: 56.5%
viability, T/C [11]: 108%
viability, T/C [12]: 92.5%
viability, T/C [13]: 86.5%
viability, T/C [14]: 56.8%
viability, T/C [15]: 54.5%
viability, T/C [28]: 46%
viability, T/C [16]: 76.7%
viability, T/C [17]: 83.4%
viability, T/C [18]: 76.4%
viability, T/C [19]: 61.9%
viability, T/C [20]: 63.2%
viability, T/C [29]: 50.3%
viability, T/C [21]: 18.3%
viability, T/C [22]: 22.9%
viability, T/C [23]: 19.1%
viability, T/C [24]: 32.5%
viability, T/C [25]: 32.2%
viability, T/C [30]: 29.3%

COC(=O)c1ccc2c(C(=Nc3ccc(N(C)C(=O)CN4CCN(C)CC4)cc3)c3ccccc3)c(O)[nH]c2c1 + COc1cc2nc(C)nc(NC(C)c3cc(N)cc(C(F)(F)F)c3)c2cc1OC1CCOC1
IC50 (second compound 0.1 µM): > 10000 nM
IC50 (second compound 0.316 µM): > 10000 nM
IC50 (second compound 1 µM): > 10000 nM
IC50 (second compound 3.16 µM): 2750 nM
IC50 (second compound 10 µM): < 31.6 nM
viability, T/C [5]: 96.3%
viability, T/C [26]: 77%
viability, T/C (second compound 0.1 µM, first compound 0.316 µM): 80.4%
viability, T/C (second compound 0.1 µM, first compound 1 µM): 83.1%
viability, T/C (second compound 0.1 µM, first compound 3.16 µM): 70%
viability, T/C (second compound 0.1 µM, first compound 10 µM): 83.7%
viability, T/C [10]: 94.1%
viability, T/C [27]: 71.5%
viability, T/C (second compound 0.316 µM, first compound 0.316 µM): 74.2%
viability, T/C (second compound 0.316 µM, first compound 1 µM): 65.3%
viability, T/C (second compound 0.316 µM, first compound 3.16 µM): 70%
viability, T/C (second compound 0.316 µM, first compound 10 µM): 74.2%
viability, T/C [15]: 78.6%
viability, T/C [28]: 80.9%
viability, T/C (second compound 1 µM, first compound 0.316 µM): 70%
viability, T/C (second compound 1 µM, first compound 1 µM): 70.2%
viability, T/C (second compound 1 µM, first compound 3.16 µM): 62.9%
viability, T/C (second compound 1 µM, first compound 10 µM): 61.6%
viability, T/C [20]: 72.1%
viability, T/C [29]: 66.6%
viability, T/C (second compound 3.16 µM, first compound 0.316 µM): 58.7%
viability, T/C (second compound 3.16 µM, first compound 1 µM): 51.5%
viability, T/C (second compound 3.16 µM, first compound 3.16 µM): 54.7%
viability, T/C (second compound 3.16 µM, first compound 10 µM): 6.87%
viability, T/C [25]: 24.1%
viability, T/C [30]: 25.9%
viability, T/C (second compound 10 µM, first compound 0.316 µM): 30.9%
viability, T/C (second compound 10 µM, first compound 1 µM): 20.9%
viability, T/C (second compound 10 µM, first compound 3.16 µM): 13.8%
viability, T/C (second compound 10 µM, first compound 10 µM): 1.87%
